Tests used:
FLT3 = biological target: T1, FLT3 (Homo sapiens, UniProt P36888); assay: Caliper mobility shift kinase inhibition assay, recombinant FLT3; type: biochemical; settings: recombinant FLT-3 0.1 nM, ATP 95 μM, incubation 3 hr, room temperature
T1 construct: purchased ThermoFisher PV3182
T1 sequence (P36888 27-993): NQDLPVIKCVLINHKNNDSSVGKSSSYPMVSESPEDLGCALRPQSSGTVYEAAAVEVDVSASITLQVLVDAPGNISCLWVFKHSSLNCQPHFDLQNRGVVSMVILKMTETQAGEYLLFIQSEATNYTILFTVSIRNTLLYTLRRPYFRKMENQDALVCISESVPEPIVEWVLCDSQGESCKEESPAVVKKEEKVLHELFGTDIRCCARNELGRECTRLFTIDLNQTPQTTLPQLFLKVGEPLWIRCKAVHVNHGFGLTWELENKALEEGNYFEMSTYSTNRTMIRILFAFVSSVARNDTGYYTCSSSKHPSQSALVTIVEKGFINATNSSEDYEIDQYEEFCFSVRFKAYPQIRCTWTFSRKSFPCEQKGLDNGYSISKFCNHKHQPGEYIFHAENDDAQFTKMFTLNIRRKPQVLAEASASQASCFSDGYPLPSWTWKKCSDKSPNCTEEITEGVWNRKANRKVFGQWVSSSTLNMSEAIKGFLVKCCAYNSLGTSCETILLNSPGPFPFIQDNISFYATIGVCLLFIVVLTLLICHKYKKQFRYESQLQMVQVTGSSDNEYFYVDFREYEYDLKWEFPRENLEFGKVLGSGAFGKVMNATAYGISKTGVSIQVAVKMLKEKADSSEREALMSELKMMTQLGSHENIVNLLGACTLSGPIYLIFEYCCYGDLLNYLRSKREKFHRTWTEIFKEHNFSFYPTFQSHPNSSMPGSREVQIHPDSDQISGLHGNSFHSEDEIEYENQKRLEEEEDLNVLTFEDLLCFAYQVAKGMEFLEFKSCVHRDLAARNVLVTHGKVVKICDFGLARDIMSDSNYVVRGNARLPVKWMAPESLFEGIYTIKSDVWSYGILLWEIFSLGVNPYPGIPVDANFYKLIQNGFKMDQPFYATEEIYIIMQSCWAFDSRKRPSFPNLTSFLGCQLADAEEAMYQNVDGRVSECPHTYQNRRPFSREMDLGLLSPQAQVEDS
Procedure: Compounds' inhibition of recombinant kinases (FLT3, KIT) was measured using Caliper mobility shift assay, which is based on the difference in capillary electrophoresis mobility of a fluorescent-tagged peptide as a result of a phosphorylation by the kinase under study. Reactions were started by the addition of various concentrations of a compound (originally in DMSO solution) to a kinase solution in assay buffer followed by addition of a mixture of ATP and a fluorescent-tagged peptide substrate in assay buffer. Concentrations of the enzyme, ATP and thepeptide were pre-optimized so that 15% substrate conversion to ensure initial velocity measurements. After incubation for 3 hours at room temperature, the kinase reaction was quenched by the addition of a concentrated EDTA solution before analysis on a LabChip EZ Reader II to yield percentage inhibition by comparing to the DMSO control. Table 2 below summarizes the assay conditions for the characterization of the kinase inhibition properties of the disclosed compounds.

KIT = biological target: T2, KIT (Homo sapiens, UniProt P10721); assay: Caliper mobility shift kinase inhibition assay, recombinant KIT; type: biochemical; settings: recombinant KIT 0.9 nM, ATP 400 μM, incubation 17 hr (Table 2)
T2 construct: purchased BPS 40250

MV4-11 = assay: Cell viability assay (CellTiter-Glo), FLT3 cell-based assay; settings: MV4-11 cells, 72 hr at 37° C., 0.1% DMSO
Procedure: Cell viability assay was performed based on the following brief procedures. Cells were plated at the density of 5K/well with volume of 180 μL in 96-well white plate and clear bottom plates. 20 μL of veh. or compound was added at proper concentration to the well. The final volume is 200 μL, with final conc. of DMSO=0.1%, 11 points, triplicates. The cells were then treated at 37° C. in the TC incubator for 72 hr. Equal volume (200 μL) of CellTiter-Glo reagent (Promega) was added to the well and protect from light at room temperature for 15 min. The chemiluminescence was measured with EnSight (Perkin Elmer). GraphPad Prism non-linear regression, Log[inhibitor] response with four parameters were used to calculate GI50.

T2 sequence (P10721 26-976): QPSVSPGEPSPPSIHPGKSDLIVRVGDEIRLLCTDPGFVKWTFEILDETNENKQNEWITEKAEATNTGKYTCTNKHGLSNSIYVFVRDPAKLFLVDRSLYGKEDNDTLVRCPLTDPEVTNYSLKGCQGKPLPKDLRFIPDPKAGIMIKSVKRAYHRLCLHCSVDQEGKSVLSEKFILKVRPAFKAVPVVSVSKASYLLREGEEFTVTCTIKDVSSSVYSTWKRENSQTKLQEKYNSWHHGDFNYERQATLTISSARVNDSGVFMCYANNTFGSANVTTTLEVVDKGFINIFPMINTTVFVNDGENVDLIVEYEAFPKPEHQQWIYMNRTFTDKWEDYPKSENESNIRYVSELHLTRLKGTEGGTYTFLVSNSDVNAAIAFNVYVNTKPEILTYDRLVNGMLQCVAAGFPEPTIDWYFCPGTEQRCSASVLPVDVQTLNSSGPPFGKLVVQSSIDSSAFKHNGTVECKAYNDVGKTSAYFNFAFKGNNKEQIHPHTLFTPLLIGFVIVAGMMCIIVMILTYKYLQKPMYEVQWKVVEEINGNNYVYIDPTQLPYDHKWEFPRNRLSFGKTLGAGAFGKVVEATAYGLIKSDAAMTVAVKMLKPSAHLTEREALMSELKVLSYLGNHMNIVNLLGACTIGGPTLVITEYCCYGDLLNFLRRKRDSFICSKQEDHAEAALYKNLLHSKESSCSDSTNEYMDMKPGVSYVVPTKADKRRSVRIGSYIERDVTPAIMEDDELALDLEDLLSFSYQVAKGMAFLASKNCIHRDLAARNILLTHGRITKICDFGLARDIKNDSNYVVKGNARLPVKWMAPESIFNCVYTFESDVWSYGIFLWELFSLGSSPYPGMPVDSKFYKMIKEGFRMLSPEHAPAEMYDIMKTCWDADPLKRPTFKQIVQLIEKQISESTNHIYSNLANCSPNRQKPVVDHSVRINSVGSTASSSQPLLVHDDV

In the case of `C=CC(=O)N1CC[C@H](O)[C@H]1C(=O)NCCn1cnc2cnc(Nc3ncc(-c4ncccc4F)s3)cc21` [Example 24, (2S,3S)-N-[2-[6-[[5-(3-fluoro-2-pyridyl)thiazol-2-yl]amino]imidazo[4,5-c]pyridin-1-yl]ethyl]-3-hydroxy-1-prop-2-enoyl-pyrrolidine-2-carboxamide], the IC50 (FLT3) is reported as < 1 nM, the IC50 (KIT) is reported as < 1 nM and the GI50 (MV4-11; Homo sapiens) is reported as 10 to 100 nM.
In the case of `CN(C)C/C=C/C(=O)N1CC[C@H](O)[C@H]1C(=O)NCCn1cnc2cnc(Nc3ncc(-c4ncccc4F)s3)cc21` [Example 26, (2S,3S)-1-[(E)-4-(dimethylamino)but-2-enoyl]-N-[2-[6-[[5-(3-fluoro-2-pyridyl)thiazol-2-yl]amino]imidazo[4,5-c]pyridin-1-yl]ethyl]-3-hydroxy-pyrrolidine-2-carboxamide], the IC50 (FLT3) is reported as < 1 nM, the IC50 (KIT) is reported as < 1 nM and the GI50 (MV4-11; Homo sapiens) is reported as 10 to 100 nM.
Compound “(2S,3S)-1-(2-fluoroprop-2-enoyl)-N-[2-[6-[[5-(3-fluoro-2-pyridyl)thiazol-2-yl]amino]imidazo[4,5-c]pyridin-1-yl]ethyl]-3-hydroxy-pyrrolidine-2-carboxamide [Example 25]” has an IC50 (FLT3) of 10 to 100 nM, an IC50 (KIT) of 100 to 1000 nM and a GI50 (MV4-11) of 10 to 100 nM.
For “(3S)-4-[(E)-4-(dimethylamino)but-2-enoyl]-N-[2-[6-[[5-(5-fluoropyrimidin-4-yl)thiazol-2-yl]amino]imidazo[4,5-c]pyridin-1-yl]ethyl]morpholine-3-carboxamide [Example 23]”, the IC50 (FLT3) was < 1 nM, the IC50 (KIT) was < 1 nM and the GI50 (MV4-11) was 10 to 100 nM.

From US20250170107A1, “IMIDAZOPYRIDINE INHIBITORS OF TYROSINE KINASE” (BridGene Biosciences. Inc., priority 2022, published 2025)
